# Test results published in patent US10150747B2, “Compounds for the treatment of hepatitis C” (BRISTOL-MYERS SQUIBB COMPANY, priority 2015, dated 2018).
# Read-outs that look alike come from different tables or passages of the source.
# Legend:
# [1] = test system: genotype 1b (Con-1) HCV replicon in Huh-7 cells; assay: HCV replicon luciferase assay (1b replicon); format: cell-based; details: Hepatitis C virus
# Method: The cell lines used to evaluate compounds consist of a human hepatocyte derived cell line (Huh-7) that constitutively expresses a genotype 1b (Con-1) HCV replicon or a genotype 1b (Con-1) HCV replicon with an asparagine replacing the cysteine at amino acid 316, or a genotype 2a (JFH-1) replicon, containing a Renilla luciferase reporter gene. These cells were maintained in Dulbecco's modified Eagle medium (DMEM) containing 10% FBS, 100 U/mL penicillin/streptomycin and 1.0 mg/mL G418.
# HCV Replicon Luciferase Assay.
# After 3 days incubation at 37° C., cells were analyzed for Renilla Luciferase activity using the EnduRen substrate (Promega cat #E6485) according to the manufacturer's directions. Briefly, the EnduRen substrate was diluted in DMEM and then added to the plates to a final concentration of 7.5 μM. The plates were incubated for at least 1 h at 37° C. then read on a Viewlux Imager (PerkinElmer) using a luminescence program.
# [2] = target: HCV NS5B genotype 1b (Con1) (Hepatitis C virus genotype 1b (isolate Con1) (HCV), UniProt Q9WMX2); assay: HCV NS5B RdRp enzyme assay (1b enzyme); format: biochemical; details: genotype 1b NS5B enzyme
# Method: HCV NS5B RdRp Cloning, Expression, and Purification.
# The cDNA encoding NS5B proteins of HCV genotype 1b (Con1), a genotype 1b variant with amino acid 316 mutated from cysteine to asparagine, and genotype 2a (JFH-1), were cloned into the pET21a expression vector. Each untagged protein was expressed with an 18 amino acid C-terminal truncation to enhance the solubility. The E. coli competent cell line BL21(DE3) was used for expression of the protein. Cultures were grown at 37° C. for ˜4 hours until the cultures reached an optical density of 2.0 at 600 nm. The cultures were cooled to 20° C. and induced with 1 mM IPTG. Fresh ampicillin was added to a final concentration of 50 μg/mL and the cells were grown overnight at 20° C.
# The lysis buffer consisted of 20 mM Tris-HCl, pH 7.4, 500 mM NaCl, 0.5% triton X-100, 1 mM DTT, 1 mM EDTA, 20% glycerol, 0.5 mg/mL lysozyme, 10 mM MgCl2, 15 ug/mL deoxyribonuclease I, and Complete TM protease inhibitor tablets (Roche). After addition of the lysis buffer, frozen cell pellets were resuspended using a tissue homogenizer. To reduce the viscosity of the sample, aliquots of the lysate were sonicated on ice using a microtip attached to a Branson sonicator. The sonicated lysate was centrifuged at 100,000×g for 30 minutes at 4° C. and filtered through a 0.2 μm filter unit (Corning).
# The protein was purified using two sequential chromatography steps: Heparin sepharose CL-6B and polyU sepharose 4B. The chromatography buffers were identical to the lysis buffer but contained no lysozyme, deoxyribonuclease I, MgCl2 or protease inhibitor and the NaCl concentration of the buffer was adjusted according to the requirements for charging the protein onto the column. Each column was eluted with a NaCl gradient which varied in length from 5-50 column volumes depending on the column type. […] The enzyme was aliquoted and stored at −80° C.
# HCV NS5B RdRp Enzyme Assay.
# An on-bead solid phase homogeneous assay was used in a 384-well format to assess NS5B inhibitors (WangY-K, Rigat K, Roberts S, and Gao M (2006) Anal Biochem, 359: 106-111). The biotinylated oligo dT12 primer was captured on streptavidin-coupled imaging beads (GE, RPNQ0261) by mixing primer and beads in 1× buffer and incubating at room temperature for three hours. Unbound primer was removed after centrifugation. The primer-bound beads were resuspended in 3× reaction mix (20 mM Hepes buffer, pH 7.5, dT primer coupled beads, poly A template, ^3H-UTP, and RNAse inhibitor (Promega N2515)). Compounds were serially diluted 1:3 in DMSO and aliquoted into assay plates. Equal volumes (5 μL) of water, 3× reaction mix, and enzyme in 3× assay buffer (60 mM Hepes buffer, pH 7.5, 7.5 mM MgCl2, 7.5 mM KCl, 3 mM DTT, 0.03 mg/mL BSA, 6% glycerol) were added to the diluted compound on the assay plate. Final concentration of components in 384-well assay: 0.36 nM template, 15 nM primer, 0.29 μM ^3H-UTP (0.3 μCi), 1.6 U/4 RNAse inhibitor, 7 nM NS5B enzyme, 0.01 mg/mL BSA, 1 mM DTT, and 0.33 μg/μL beads, 20 mM Hepes buffer, pH 7.5, 2.5 mM MgCl2, 2.5 mM KCl, and 0.1% DMSO.
# Reactions were allowed to proceed for 24 hours at 30° C. and terminated by the addition of 50 mM EDTA (5 μL). After incubating for at least 15 minutes, plates were read on an Amersham LEADseeker multimodality imaging system.
# IC50 values for compounds were determined using ten different [I]. IC50 values were calculated from the inhibition using the four-parameter logistic formula y=A+((B−A)/(1+((C/x)^D))), where A and B denote minimal and maximal % inhibition, respectively, C is the IC50, D is hill slope and x represents compound concentration.
# [3] = 72 h, genotype 1b replicon, Huh-7, Renilla luciferase, 3 days incubation, read-out: EC50
# Chain of HCV NS5B genotype 1b (Con1) (Q9WMX2 2420-2992): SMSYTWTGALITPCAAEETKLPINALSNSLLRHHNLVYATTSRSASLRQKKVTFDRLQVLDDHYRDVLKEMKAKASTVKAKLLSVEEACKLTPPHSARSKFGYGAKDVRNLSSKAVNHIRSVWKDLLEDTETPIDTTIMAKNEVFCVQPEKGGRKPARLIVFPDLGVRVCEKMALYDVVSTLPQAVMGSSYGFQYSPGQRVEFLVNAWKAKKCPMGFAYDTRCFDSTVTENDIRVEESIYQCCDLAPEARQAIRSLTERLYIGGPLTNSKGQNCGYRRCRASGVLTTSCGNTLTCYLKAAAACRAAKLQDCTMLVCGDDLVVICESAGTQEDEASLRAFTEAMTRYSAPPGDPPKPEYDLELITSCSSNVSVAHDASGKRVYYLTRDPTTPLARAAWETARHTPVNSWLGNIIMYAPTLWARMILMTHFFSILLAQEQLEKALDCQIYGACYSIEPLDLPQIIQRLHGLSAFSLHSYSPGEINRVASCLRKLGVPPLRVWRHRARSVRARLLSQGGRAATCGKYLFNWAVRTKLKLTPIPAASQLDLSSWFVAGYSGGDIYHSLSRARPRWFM
Structure (SMILES),"EC50 [1, 3]",IC50 [2],"EC50 ([1]; Huh-7, 72 h)"
"CNC(=O)c1c(-c2ccc(F)cc2)oc2cc(OCC(F)(F)F)c(-c3cccc(C(=O)NC4(c5ncccn5)CC4)c3)cc12 [Example 1, 2-(4-Fluorophenyl)-N-methyl-5-(3-((1-(pyrimidin-2-yl)cyclopropyl)carbamoyl)phenyl)-6-(2,2,2-trifluoroethoxy)benzofuran-3-carboxamide]",10 nM,7.42 nM,–
"CNC(=O)c1c(-c2ccc(F)cc2)oc2cc(OCC(F)(F)F)c(-c3ccc(OC)c(C(=O)NC4(c5ncccn5)CC4)c3)cc12 [Example 2, 2-(4-Fluorophenyl)-5-(4-methoxy-3-((1-(pyrimidin-2-yl)cyclopropyl)carbamoyl)phenyl)-N-methyl-6-(2,2,2-trifluoroethoxy)benzofuran-3-carboxamide]",6.24 nM,4.15 nM,–
"CNC(=O)c1c(-c2ccc(F)cc2)oc2cc(OCC(F)(F)F)c(-c3ccc(F)c(C(=O)NC4(c5ncccn5)CC4)c3)cc12 [Example 3, 5-(4-Fluoro-3-((1-(pyrimidin-2-yl)cyclopropyl)carbamoyl)phenyl)-2-(4-fluorophenyl)-N-methyl-6-(2,2,2-trifluoroethoxy)benzofuran-3-carboxamide]",6.7 nM,4.38 nM,–
"CNC(=O)c1c(-c2ccc(F)cc2)oc2cc(OCC(F)(F)F)c(-c3ccc(F)c(C(=O)NC45CC(C4)C5)c3)cc12 [Example 4, 5-(3-(Bicyclo[1.1.1]pentan-1-ylcarbamoyl)-4-fluorophenyl)-2-(4-fluorophenyl)-N-methyl-6-(2,2,2-trifluoroethoxy)benzofuran-3-carboxamide]",8.61 nM,3.88 nM,–
"CCOc1cc2oc(-c3ccc(F)cc3)c(C(=O)NC)c2cc1-c1cccc(C(=O)NC23CC(C2)C3)c1 [Example 5, 5-(3-(Bicyclo[1.1.1]pentan-1-ylcarbamoyl)phenyl)-6-ethoxy-2-(4-fluorophenyl)-N-methylbenzofuran-3-carboxamide]",6.5 nM,4.3 nM,–
"CCOc1cc2oc(-c3ccc(F)cc3)c(C(=O)NC)c2cc1-c1cccc(C(=O)NC2(c3ncccn3)CC2)c1 [Example 7, 6-Ethoxy-2-(4-fluorophenyl)-N-methyl-5-(3-((1-(pyrimidin-2-yl)cyclopropyl)carbamoyl)phenyl)benzofuran-3-carboxamide]",10 nM,5.78 nM,–
"CNC(=O)c1c(-c2ccc(F)cc2)oc2cc(OCC(F)(F)F)c(-c3cccc(C(=O)NC4(C#N)CC4)c3)cc12 [Example 8, 5-(3-((1-Cyanocyclopropyl)carbamoyl)phenyl)-2-(4-fluorophenyl)-N-methyl-6-(2,2,2-trifluoroethoxy)benzofuran-3-carboxamide]",20 nM,4.97 nM,–
"CNC(=O)c1c(-c2ccc(F)cc2)oc2cc(OCC(F)(F)F)c(-c3cccc(C(=O)NC(C)(C)C#N)c3)cc12 [Example 10, 5-(3-((2-Cyanopropan-2-yl)carbamoyl)phenyl)-2-(4-fluorophenyl)-N-methyl-6-(2,2,2-trifluoroethoxy)benzofuran-3-carboxamide]",5.01 nM,3.02 nM,–
"CCOc1cc2oc(-c3ccc(F)cc3)c(C(=O)NC)c2cc1-c1ccc(OC)c(C(=O)NC23CC(C2)C3)c1 [Example 11, 5-(3-(Bicyclo[1.1.1]pentan-1-ylcarbamoyl)-4-methoxyphenyl)-6-ethoxy-2-(4-fluorophenyl)-N-methylbenzofuran-3-carboxamide]",9.63 nM,–,–
"CCOc1cc2oc(-c3ccc(F)cc3)c(C(=O)NC)c2cc1-c1ccc(OC)c(C(=O)NC2(c3ncccn3)CC2)c1 [Example 12, 6-Ethoxy-2-(4-fluorophenyl)-5-(4-methoxy-3-((1-(pyrimidin-2-yl)cyclopropyl)carbamoyl)phenyl)-N-methylbenzofuran-3-carboxamide]",4.2 nM,1.89 nM,–
"CCOc1cc2oc(-c3ccc(F)cc3)c(C(=O)NC)c2cc1-c1cnc(OC)c(C(=O)NC2(c3ncccn3)CC2)c1 [Example 13, 5-(6-Ethoxy-2-(4-fluorophenyl)-3-(methylcarbamoyl)benzofuran-5-yl)-2-methoxy-N-(1-(pyrimidin-2-yl)cyclopropyl)nicotinamide]",3.67 nM,2.72 nM,–
"CCOc1cc2oc(-c3ccc(F)cc3)c(C(=O)NC)c2cc1-c1cnc(OC)c(C(=O)NC23CC(C2)C3)c1 [Example 15, N-(bicyclo[1.1.1]pentan-1-yl)-5-(6-ethoxy-2-(4-fluorophenyl)-3-(methylcarbamoyl)benzofuran-5-yl)-2-methoxynicotinamide]",7.03 nM,2.48 nM,–
"[2H]C([2H])([2H])Oc1ncc(-c2cc3c(C(=O)NC)c(-c4ccc(F)cc4)oc3cc2OCC)cc1C(=O)NC(C)(C)C#N [Example 17, N-(2-cyanopropan-2-yl)-5-(6-ethoxy-2-(4-fluorophenyl)-3-(methylcarbamoyl)benzofuran-5-yl)-2-(methoxy-d3)nicotinamide]",–,1.84 nM,2.8 nM
"CNC(=O)c1c(-c2ccc(F)cc2)oc2cc(OCC(F)(F)F)c(-c3ccc(OC)c(C(=O)NC(C)(C)c4ncon4)c3)cc12 [Example 18, 5-(3-((2-(1,2,4-oxadiazol-3-yl)propan-2-yl)carbamoyl)-4-methoxyphenyl)-2-(4-fluorophenyl)-N-methyl-6-(2,2,2-trifluoroethoxy)benzofuran-3-carboxamide]",2.85 nM,2.83 nM,–
"CNC(=O)c1c(-c2ccc(F)cc2)oc2cc(OCC(F)F)c(-c3cccc(C(=O)NC(C)(C)c4ncon4)c3)cc12 [Example 19, 5-(3-((2-(1,2,4-Oxadiazol-3-yl)propan-2-yl)carbamoyl)phenyl)-6-(2,2-difluoroethoxy)-2-(4-fluorophenyl)-N-m ethylbenzofuran-3-carboxamide]",7.41 nM,4.2 nM,–
"CNC(=O)c1c(-c2ccc(F)cc2)oc2cc(OCC(F)F)c(-c3cccc(C(=O)NC4(c5ncccn5)CC4)c3)cc12 [Example 20, 6-(2,2-difluoroethoxy)-2-(4-fluorophenyl)-N-methyl-5-(3-((1-(pyrimidin-2-yl)cyclopropyl)carbamoyl)phenyl)benzofuran-3-carboxamide]",–,4.54 nM,6.79 nM
"CNC(=O)c1c(-c2ccc(F)cc2)oc2cc(OCC(F)(F)F)c(-c3cnc(OC)c(C(=O)NC45CC(C4)C5)c3)cc12 [Example 30, N-(Bicyclo[1.1.1]pentan-1-yl)-5-(2-(4-fluorophenyl)-3-(methylcarbamoyl)-6-(2,2,2-trifluoroethoxy)benzofuran-5-yl)-2-methoxynicotinamide]",10 nM,–,–
"CNC(=O)c1c(-c2ccc(F)cc2)oc2cc(OCC(F)(F)F)c(-c3cnc(OC)c(C(=O)NC(C)(C)c4ncon4)c3)cc12 [Example 31, N-(2-(1,2,4-Oxadiazol-3-yl)propan-2-yl)-5-(2-(4-fluorophenyl)-3-(methylcarbamoyl)-6-(2,2,2-trifluoroethoxy)benzofuran-5-yl)-2-methoxynicotinamide]",3.21 nM,–,–
